Reference: patent US10501464B2, “7-oxo-6-(sulfooxy)-1,6-diazabicyclo[3.2.1]octane-2-carboxamide containing compounds and their use in treating bacterial infections” (WOCKHARDT LIMITED, priority 2015, dated 2019)
Read-outs that look alike come from different tables or passages of the source.

Key:
Assay in all cases: Antibacterial activity, MIC by agar dilution (CLSI)
Format in all cases: cell-based
K. pneumoniae H 525 = details: compound tested alone
Method: (§1) The biological activity of representative compounds according to the invention against various bacterial strains was investigated. In a typical study, overnight grown bacterial cultures were diluted appropriately and inoculated on the agar media containing doubling dilutions of the test compounds. Observations for growth or no growth was performed after 16-20 hours of incubation at 35±2° C. in the ambient air. The overall procedure was performed as per Clinical and Laboratory Standards Institute (CLSI) recommendations, (Clinical and Laboratory Standards Institute (CLSI), Performance Standards for Antimicrobial Susceptibility Testing, 20th Informational Supplement, M07-A9, Volume 32, No. 2, 2012). Molten Mueller Hinton Agar (BD, USA) containing serial dilutions of each antibacterial agent were poured on to the plates and allowed to solidify. Appropriate suspensions from the freshly grown cultures were prepared in normal saline so that about 10^4CFU/spot of the organism was delivered on to the drug containing agar plates using automated multipoint inoculator (Mast, UK). The plates were incubated in Biochemical oxygen demand (BOD) incubator at 37° C. for 18 hours and then examined for growth.
(§2) Method for the determination of MIC: The Minimum Inhibitory Concentration (MIC) determination for the combinations was carried out in Muller Hinton Agar (MHA) (BD, USA) according to Clinical and Laboratory Standards Institute (CLSI) recommendations, (Clinical and Laboratory Standards Institute (CLSI), Performance Standards for Antimicrobial Susceptibility Testing, 20th Informational Supplement, M 100-S20, Volume 30, No. 1, 2010). In short, the test strains were adjusted to deliver about 10^4CFU per spot with a multipoint inoculator (Applied Quality Services, UK). The plates were poured with MHA containing doubling concentration range of representative compounds according to present invention. The plates were inoculated and were incubated at 35° C. for 18 hour. […] The Table 2 depicts the antibacterial activity profile of compounds according to present invention against various multidrug resistant bacterial strains.

E. coli 13353 = details: compound tested alone
Method: as §1, §2

E. coli M 36 = details: compound tested alone
Method: as §1, §2

E. coli 13352 = details: compound tested alone
Method: as §1, §2

K. pneumoniae H 522 = details: compound tested alone
Method: as §1, §2

[1] = tested on: K. pneumoniae ATCC 700603
Method: as §1, §2

E. coli M 49 = details: compound tested alone
Method: as §1, §2

K. pneumoniae H 523 = details: compound tested alone
Method: as §1, §2

E. coli M 138 = details: compound tested alone
Method: as §1, §2

E. coli 7 MP = details: compound tested alone
Method: as §1, §2

K. pneumoniae H 521 = details: compound tested alone
Method: as §1, §2

E. coli M 50 = details: compound tested alone
Method: as §1, §2

E. coli 13351 = details: compound tested alone
Method: as §1, §2

P. mirabilis S 137B = details: compound tested alone
Method: as §1, §2

[2] = Klebsiella pneumoniae, H525, K. pneumoniae H 525, read-out: MIC
[3] = Escherichia coli, 13353, E. coli 13353, read-out: MIC
[4] = Escherichia coli, M36, E. coli M 36, read-out: MIC
[5] = Escherichia coli, 13352, E. coli 13352, read-out: MIC
[6] = Klebsiella pneumoniae, H522, K. pneumoniae H 522, read-out: MIC
[7] = Klebsiella pneumoniae, ATCC700603, compound tested alone, read-out: MIC
[8] = Escherichia coli, M49, E. coli M 49, read-out: MIC
[9] = Klebsiella pneumoniae, H523, K. pneumoniae H 523, read-out: MIC
[10] = Escherichia coli, M138, E. coli M 138, read-out: MIC
[11] = Escherichia coli, 7MP, read-out: MIC
[12] = Klebsiella pneumoniae, H521, K. pneumoniae H 521, read-out: MIC
[13] = Escherichia coli, M50, E. coli M 50, read-out: MIC
[14] = Escherichia coli, 13351, E. coli 13351, read-out: MIC

Row | SMILES | MIC (K. pneumoniae H 525; [2]) [µg/mL] | MIC (E. coli 13353; [3]) [µg/mL] | MIC (E. coli M 36; [4]) [µg/mL] | MIC (E. coli 13352; [5]) [µg/mL] | MIC (K. pneumoniae H 522; [6]) [µg/mL] | MIC [1, 7] [µg/mL] | MIC (E. coli M 49; [8]) [µg/mL] | MIC (K. pneumoniae H 523; [9]) [µg/mL] | MIC (E. coli M 138; [10]) [µg/mL] | MIC (E. coli 7 MP; [11]) [µg/mL] | MIC (K. pneumoniae H 521; [12]) [µg/mL] | MIC (E. coli M 50; [13]) [µg/mL] | MIC (E. coli 13351; [14]) [µg/mL] | further results
1 | O=C(NOCC1C[C@@H](N2CCCCC2)CN1)[C@@H]1CC[C@@H]2CN1C(=O)N2OS(=O)(=O)O (stereo partly shown) [Example 19] | 8 | 4 | 8 | 8 | 8 | > 32 | 32 | 8 | 8 | > 32 | 8 | 8 | 8 | 
2 | O=C(NOCC1C[C@@H](N2CCNCC2)CN1)[C@@H]1CC[C@@H]2CN1C(=O)N2OS(=O)(=O)O (stereo partly shown) [Example 20] | 8 | 8 | 4 | 16 | 8 | > 32 | 16 | 8 | 4 | 16 | 8 | 8 | 8 | 
3 | CN1CCN([C@H]2CNC(CONC(=O)[C@@H]3CC[C@@H]4CN3C(=O)N4OS(=O)(=O)O)C2)CC1 (stereo partly shown) [Example 21] | 8 | 4 | 4 | 8 | 4 | > 32 | 16 | 4 | 4 | 16 | 8 | 8 | 8 | 
4 | CN1CCN([C@H]2CNC(CONC(=O)[C@@H]3CC[C@@H]4CN3C(=O)N4OS(=O)(=O)O)C2)CC1 (stereo partly shown) [Example 22] |  |  |  |  |  |  |  |  |  |  |  |  |  | MIC (K. pneumoniae H 525; K. pneumoniae H 525): 8 µg/mL; MIC (E. coli 13353; E. coli 13353): 4 µg/mL; MIC (E. coli M 36; E. coli M 36): 4 µg/mL; MIC (E. coli 13352; E. coli 13352): 16 µg/mL; MIC (K. pneumoniae H 522; K. pneumoniae H 522): 8 µg/mL; MIC ([1]; compound tested alone): >32 µg/mL; MIC (E. coli M 49; E. coli M 49): 8 µg/mL; MIC (K. pneumoniae H 523; K. pneumoniae H 523): 8 µg/mL; MIC (E. coli M 138; E. coli M 138): 8 µg/mL; MIC (E. coli 7 MP): 16 µg/mL; MIC (K. pneumoniae H 521; K. pneumoniae H 521): 8 µg/mL; MIC (E. coli M 50; E. coli M 50): 8 µg/mL; MIC (E. coli 13351; E. coli 13351): 8 µg/mL
5 | O=C(NNC(=O)[C@@H]1CC[C@@H]2CN1C(=O)N2OS(=O)(=O)O)C1C[C@H](n2ccnc2)CN1 (stereo partly shown) [Example 34] |  |  |  |  |  |  |  |  |  |  |  |  |  | MIC (K. pneumoniae H 525; K. pneumoniae H 525): 8 µg/mL; MIC (E. coli 13353; E. coli 13353): 4 µg/mL; MIC (E. coli M 36; E. coli M 36): 4 µg/mL; MIC (E. coli 13352; E. coli 13352): 8 µg/mL; MIC (K. pneumoniae H 522; K. pneumoniae H 522): 8 µg/mL; MIC ([1]; compound tested alone): >32 µg/mL; MIC (P. mirabilis S 137B): >32 µg/mL; MIC (E. coli M 49; E. coli M 49): 4 µg/mL; MIC (K. pneumoniae H 523; K. pneumoniae H 523): 8 µg/mL; MIC (E. coli 7 MP): 16 µg/mL; MIC (K. pneumoniae H 521; K. pneumoniae H 521): 8 µg/mL; MIC (E. coli M 50; E. coli M 50): 8 µg/mL; MIC (E. coli 13351; E. coli 13351): 4 µg/mL

Further lines, with some results ahead:

Row | MIC (K. pneumoniae H 525; [2]) [µg/mL] | MIC (E. coli 13353; [3]) [µg/mL] | MIC (E. coli M 36; [4]) [µg/mL] | MIC (E. coli 13352; [5]) [µg/mL] | MIC (K. pneumoniae H 522; [6]) [µg/mL] | MIC [1, 7] [µg/mL] | MIC (E. coli M 49; [8]) [µg/mL] | MIC (K. pneumoniae H 523; [9]) [µg/mL] | MIC (E. coli M 138; [10]) [µg/mL] | MIC (E. coli 7 MP; [11]) [µg/mL] | MIC (K. pneumoniae H 521; [12]) [µg/mL] | MIC (E. coli M 50; [13]) [µg/mL] | MIC (E. coli 13351; [14]) [µg/mL] | SMILES | further results
6 | 8 | 4 | 4 | 8 | 8 | > 32 | 16 | 8 | 4 | 16 | 8 | 8 | 8 | O=C(NOCC1C[C@H](N2CCOCC2)CN1)[C@@H]1CC[C@@H]2CN1C(=O)N2OS(=O)(=O)O (stereo partly shown) [Example 17] | 
7 | 2 | 1 | 2 | 2 | 2 | > 32 | 16 | 2 | 2 | 4 | 2 | 2 | 2 | O=C(NOCC1C[C@H](N2CCCCC2)CN1)[C@@H]1CC[C@@H]2CN1C(=O)N2OS(=O)(=O)O (stereo partly shown) [Example 18] | 
